# Data as given in US9452154B2, “Methods for treating HCV” (Gilead Sciences, Inc., priority 2010, dated 2016).
# Several values for one entry are separate records, joined by “and”; a condition that tells them apart may be missing. Equal values may be shown once. Read-outs that look alike come from different tables or passages of the source.
# Legend:
# HCV genotype 1a replicon [1] = test: Biological Example 3: antiviral combination studies with Compound 4 (MacSynergy II); conditions: in combination with Compound 4
# GT-1b Huh-lunet cells = test: Biological Example 4: antiviral combination studies with Compound 5 (MacSynergy II); assay type: cell-based, HCV; conditions: in combination with Compound 5, 1b replicon cells
# [2] = system: Huh-7 cells carrying a HCV genotype 1a replicon; test: Biological Example 3: cytotoxicity in combination studies (MacSynergy II)
# [3] = Biological Example 3: cytotoxicity (calcein AM), CC50; assay type: cell-based; conditions: human, Huh-7 cells carrying a HCV genotype 1a replicon; HCV genotype 1a replicon cells; calcein AM
# Procedure: The HCV replicon assay was a multiplex assay which can assess both cytotoxicity and anti-replicon activity from the same well. The CC50 assay was performed first.
# The cytotoxicity effect was determined by calcein AM conversion to fluorescent product. The percent cytotoxicity was calculated by equation 1:
# (§1) [formula] where XC is the fluorescence signal from the compound-treated well; MB is the average fluorescence signal from puromycin-treated wells; MD is the average fluorescence signal from DMSO-treated wells. The anti-HCV replication activity was determined by the luminescence signal generated from the reporter renilla luciferase of the HCV replicon. The percent inhibition on HCV replicon was calculated using equation 1, where XC is the luminescence signal from compound-treated well; MB is average luminescence signal from the ITMN-191-treated wells; MD is the average luminescence signal from DMSO-treated wells.
# (§2) Both CC50 and EC50 values were obtained using Pipeline Pilot 5.0 software package (Accelrys, San Diego, Calif.) by nonlinear regression fitting of experimental data to equation 2: […]
# [4] = system: GT1b and GT1a mutant replicons; test: Biological Example 8: summary of cross resistance of mutant replicons; assay type: cell-based, HCV
# Procedure: (§3) GT1b and GT1a replicons carrying Renilla Luciferase reporter were used to generate the mutant replicons. The mutations were introduced into the replicon construct by site-directed mutagenesis and confirmed by sequencing. Mutant replicon RNAs were generated from DNA by in vitro transcription and transfected into Huh-7 Lunet or C1 cells
# (§4) Compounds were serially diluted 1:3 in 100% DMSO (Sigma). These serial dilutions were added to the cells at a 1:200 dilution to achieve a final concentration of 0.5% DMSO in a total volume of 200 μL. […] EC50 values were calculated using Prism.
# (§5) For comparison, a fold change of 0-3 is considered “sensitive”, a fold change of 3-10 is considered “low”, a fold change of 10-50 is considered “medium” and a fold change of greater than […] is considered “high”.
# [5] = system: Genotype 1b replicon cells; test: Biological Example 6: compound concentration required to suppress replicon RNA by 1-1.5 log over 6 days (QRT-PCR); assay type: cell-based, HCV; conditions: 6 day assay
# Procedure: Flasks were incubated at 37° C., media and compounds were refreshed every two days. After 6 days of incubation the replicon cells were collected for RNA extraction and replicon RNA QRT-PCR analysis.
# HCV 1b replicon system = test: Biological Example 5: antiviral combination studies with Compound 6 (MacSynergy II); assay type: cell-based; conditions: in combination with Compound 6
# [6] = Drug-drug interaction: exposure on co-administration with Compound 2
# HCV genotype 1a replicon [7] = test: Biological Example 3: HCV genotype 1a replicon assay, EC50; assay type: cell-based; conditions: Hepatitis C virus, 72 h, 3 days, read-out: EC50
# Procedure: The HCV genotype 1a replicon cell line used in this study was described previously. The cells were grown in cell culture medium containing Dulbecco's Modified Eagle Medium (DMEM) with GlutaMAX (Gibco, Carlsbad, Calif., Cat#10569-044), supplemented with 10% FBS (HyClone, Logan, Utah, Cat#SH30071.03), 100 Units/mL Penicillin, 100 μg/mL Streptomycin (Gibco, Carlsbad, Calif., Cat#15140-122), and 0.1 mM non-essential amino acids (Gibco, Carlsbad, Calif., Cat#11140-050). Replicon cells were maintained in 0.5 mg/mL Geneticin (Invitrogen, Carlsbad, Calif., Cat#10131-035) to prevent the loss of HCV replicon. The cells were passaged every 3-4 days before reaching confluency.
# as §1, §2
# [8] = system: NS3 GT1b mutant replicons; assay type: cell-based, HCV
# Procedure: as §3, §4, §5
# [9] = system: NS3 GT1a mutant replicons; assay type: cell-based, HCV
# Procedure: as §3, §4, §5
# [10] = human; 800 mg/day; cited from earlier work
# [11] = all single NS3 PI-resistant mutants
# [12] = triple class mutants that confer resistance to PI, NS5A and Compound 1
smiles,measurement,setting,value
"Fc1ccccc1-c1nc2ccn(Cc3ccc(-c4ccc(C(F)(F)F)cc4C(F)(F)F)nn3)cc-2n1 [Compound 1, 5-((6-(2,4-bis(trifluoromethyl)phenyl)pyridazin-3-yl)methyl)-2-(2-fluorophenyl)-5H-imidazo[4,5-c]pyridine]",Antagonism Volume,HCV genotype 1a replicon [1],−1 ± 2 nM^2%
same,Synergy Volume,HCV genotype 1a replicon [1],34 ± 26 nM^2%
same,Antagonism Volume,GT-1b Huh-lunet cells,0 ± 0 nM^2
same,Synergy Volume,GT-1b Huh-lunet cells,70 ± 26 nM^2
same,Antagonism Volume (cytotoxicity),[2]; in combination with Compound 4,0 ± 1 nM^2%
same,Interaction (cytotoxicity),[2]; in combination with Compound 4,Additivity (Additivity: ≦25 and >−25 nM^2%)
same,Synergy Volume (cytotoxicity),[2]; in combination with Compound 4,13 ± 11 nM^2%
same,CC50 at 3 days,[3],> 44.4 µM
same,susceptibility of mutants,[4]; [11],full susceptibility
same,Compound concentration able to induce replicon RNA 1-1.5 log drop,[5],10 nM
same,Antagonism Volume,HCV 1b replicon system,−17 ± 0.7 nM^2
same,Interaction,HCV 1b replicon system,Minor Synergy
same,Synergy Volume,HCV 1b replicon system,34 nM^2 and 34 ± 9.9 nM^2
same,increase of exposure when combined with Compound 2,[6],2-3 ×
same,EC50,HCV genotype 1a replicon [7],0.019 ± 0.008 µM
CC(C)OC(=O)[C@H](C)N[P@](=O)(OC[C@H]1O[C@@](C#N)(c2ccc3c(N)ncnn23)[C@](C)(O)[C@@H]1OC(=O)C(C)C)Oc1ccccc1 [Compound 4],fold change in EC50 vs wild-type GT1b,[8]; mutant A156D,0.4 fold
same,fold change in EC50 vs wild-type GT1b,[8]; mutant A156G,0.6 fold
same,fold change in EC50 vs wild-type GT1b,[8]; mutant A156T,0.9 fold
same,fold change in EC50 vs wild-type GT1b,[8]; mutant A156V,0.6 fold
same,fold change in EC50 vs wild-type GT1b,[8]; mutant D168A,1.0 fold
same,fold change in EC50 vs wild-type GT1b,[8]; mutant D168E,1.0 fold
same,fold change in EC50 vs wild-type GT1b,[8]; mutant D168E + L31V + Y448H,1.1 fold
same,fold change in EC50 vs wild-type GT1b,[8]; mutant D168E + Y93H + Y448H,0.9 fold
same,fold change in EC50 vs wild-type GT1b,[8]; mutant D168E + Y448H,0.7 fold
same,fold change in EC50 vs wild-type GT1b,[8]; mutant D168G,0.7 fold
same,fold change in EC50 vs wild-type GT1b,[8]; mutant D168H,1.7 fold
same,fold change in EC50 vs wild-type GT1b,[8]; mutant D168H + C445F,0.5 fold
same,fold change in EC50 vs wild-type GT1b,[8]; mutant D168L + C445F,0.3 fold
same,fold change in EC50 vs wild-type GT1b,[8]; mutant D168N,1.2 fold
same,fold change in EC50 vs wild-type GT1b,[8]; mutant D168T,1.4 fold
same,fold change in EC50 vs wild-type GT1b,[8]; mutant D168V,0.9 fold
same,fold change in EC50 vs wild-type GT1b,[8]; mutant D168V + C445F,0.7 fold
same,fold change in EC50 vs wild-type GT1b,[8]; mutant D168V + L31V + Y448H,0.6 fold
same,fold change in EC50 vs wild-type GT1b,[8]; mutant D168V + Y93H + Y448H,0.8 fold
same,fold change in EC50 vs wild-type GT1b,[8]; mutant D168V + Y448H,0.9 fold
same,fold change in EC50 vs wild-type GT1b,[8]; mutant D168Y,0.5 fold
same,fold change in EC50 vs wild-type GT1b,[8]; mutant L31V + D168E,1.6 fold
same,fold change in EC50 vs wild-type GT1b,[8]; mutant L31V + D168V,1.1 fold
same,fold change in EC50 vs wild-type GT1b,[8]; mutant R155C,0.8 fold
same,fold change in EC50 vs wild-type GT1b,[8]; mutant R155G,0.2 fold
same,fold change in EC50 vs wild-type GT1b,[8]; mutant R155K,0.6 fold
same,fold change in EC50 vs wild-type GT1b,[8]; mutant R155L,0.7 fold
same,fold change in EC50 vs wild-type GT1b,[8]; mutant R155Q,0.8 fold
same,fold change in EC50 vs wild-type GT1b,[8]; mutant R155W,0.5 fold
same,fold change in EC50 vs wild-type GT1b,[8]; mutant Y93H + D168E,1.3 fold
same,fold change in EC50 vs wild-type GT1b,[8]; mutant Y93H + D168V,1.0 fold
same,fold change in EC50 vs wild-type GT1a,[9]; mutant A156T,0.2 fold
same,fold change in EC50 vs wild-type GT1a,[9]; mutant D168A,0.9 fold
same,fold change in EC50 vs wild-type GT1a,[9]; mutant D168E,1.5 fold
same,fold change in EC50 vs wild-type GT1a,[9]; mutant D168G,0.8 fold
same,fold change in EC50 vs wild-type GT1a,[9]; mutant D168H,1.0 fold
same,fold change in EC50 vs wild-type GT1a,[9]; mutant D168N,1.0 fold
same,fold change in EC50 vs wild-type GT1a,[9]; mutant D168V,1.4 fold
same,fold change in EC50 vs wild-type GT1a,[9]; mutant D168Y,1.0 fold
same,fold change in EC50 vs wild-type GT1a,[9]; mutant R155I,0.6 fold
same,fold change in EC50 vs wild-type GT1a,[9]; mutant R155K,0.7 fold
same,fold change in EC50 vs wild-type GT1a,[9]; mutant R155K + L31M,0.4 fold
same,fold change in EC50 vs wild-type GT1a,[9]; mutant R155K + L31M + Y448H,0.6 fold
same,fold change in EC50 vs wild-type GT1a,[9]; mutant R155K + M28T,0.2 fold
same,fold change in EC50 vs wild-type GT1a,[9]; mutant R155K + M28T + Y448H,0.3 fold
same,fold change in EC50 vs wild-type GT1a,[9]; mutant R155K + Q30H + Y448H,0.9 fold
same,fold change in EC50 vs wild-type GT1a,[9]; mutant R155K + Q30R,0.9 fold
same,fold change in EC50 vs wild-type GT1a,[9]; mutant R155K + Y93H,0.3 fold
same,fold change in EC50 vs wild-type GT1a,"[9]; mutant R155K + Y488H (first line, r20)",0.7 fold
same,fold change in EC50 vs wild-type GT1a,"[9]; mutant R155K + Y488H (second line, r26)",0.5 fold
same,fold change in EC50 vs wild-type GT1a,[9]; mutant R155M,0.4 fold
same,fold change in EC50 vs wild-type GT1a,[9]; mutant R155S,0.2 fold
same,fold change in EC50 vs wild-type GT1a,[9]; mutant R155T,0.2 fold
same,fold change in EC50 vs wild-type GT1a,[9]; mutant R155W,0.7 fold
same,fold change in EC50 vs wild-type GT1a,[9]; mutant R155k + Q30H,0.6 fold
same,Antagonism Volume (cytotoxicity),[2]; in combination with Ribavirin,−1 ± 2 μM^2%
same,Interaction (cytotoxicity),[2]; in combination with Ribavirin,Additivity (Additivity: ≦25 and >−25 nM^2%)
same,Synergy Volume (cytotoxicity),[2]; in combination with Ribavirin,4 ± 3 μM^2%
same,CC50 at 3 days,[3],> 44.4 µM
same,susceptibility of mutants,[4]; [11],full susceptibility
same,susceptibility of mutants,[4]; [12],susceptible
same,Compound concentration able to induce replicon RNA 1-1.5 log drop,[5],1000 nM
"NC(=O)c1ncn([C@@H]2O[C@H](CO)[C@@H](O)[C@H]2O)n1 [Ribavirin, 1-β-D-ribofuranosyl-1H-1,2,4-Triazole-3-carboxamide, reference compound]",Antagonism Volume,HCV genotype 1a replicon [1],−43 nM^2% and −43 ± 20 nM^2%
same,Synergy Volume,HCV genotype 1a replicon [1],1 ± 1 nM^2%
same,Antagonism Volume,GT-1b Huh-lunet cells,−12 ± 9 nM^2
same,Interaction,GT-1b Huh-lunet cells,Additive
same,Synergy Volume,GT-1b Huh-lunet cells,12 ± 8 nM^2
same,CC50 at 3 days,[3],> 88.8 µM
same,susceptibility of mutants,[4]; [11],full susceptibility
same,susceptibility of mutants,[4]; [12],susceptible
same,steady-state plasma concentration,[10],6 to 11 µM
same,Antagonism Volume,HCV 1b replicon system,−0.5 ± 0.1 nM^2
same,Interaction,HCV 1b replicon system,Moderate Synergy
same,Synergy Volume,HCV 1b replicon system,61 nM^2 and 61 ± 0.5 nM^2
same,EC50,HCV genotype 1a replicon [7],36.5 ± 17.5 µM
